Assay results as given in ChEMBL document CHEMBL6109109, “Fatty acid binding protein 5 inhibitors as novel anticancer agents against metastatic castration-resistant prostate cancer” (Bioorg Med Chem, 2025).

What was measured:
[1] = Synergistic anticancer activity against mouse RCaP cells assessed as cell growth inhibition at 20 uM measured after 72 hrs in presence of 1 uM of topotecan by MTT assay relative to control; format: functional; details: read-out: GI
[2] = Synergistic anticancer activity against mouse RCaP cells assessed as cell growth inhibition at […] measured after 72 hrs in presence of 0.00001 uM of topotecan by MTT assay relative to control; format: functional; details: dose 2.5 µM, read-out: GI
[3] = Synergistic anticancer activity against mouse RCaP cells assessed as cell growth inhibition at […] measured after 72 hrs in presence of 0.001 uM of topotecan by MTT assay relative to control; format: functional; details: dose 2.5 µM, read-out: GI
[4] = Synergistic anticancer activity against mouse RCaP cells assessed as cell growth inhibition at 20 uM measured after 72 hrs in presence of 0.1 uM of topotecan by MTT assay relative to control; format: functional; details: read-out: GI
PC-3 [5] = test: Synergistic anticancer activity against human PC-3 cells assessed as cell growth inhibition at 10 uM measured after 72 hrs in presence of 0.00001 uM of topotecan by MTT assay relative to control; format: functional; details: read-out: GI
PC-3 [6] = test: Cytotoxicity against human PC-3 cells assessed as cell growth inhibition at 20 uM measured after 72 hrs by MTT assay relative to control; format: functional; details: read-out: GI
PC-3 [7] = test: Synergistic anticancer activity against human PC-3 cells assessed as cell growth inhibition at 20 uM measured after 72 hrs in presence of 0.001 uM of topotecan by MTT assay relative to control; format: functional; details: read-out: GI
PC-3 [8] = test: Synergistic anticancer activity against human PC-3 cells assessed as cell growth inhibition at 5 uM measured after 72 hrs in presence of 0.01 uM of topotecan by MTT assay relative to control; format: functional; details: read-out: GI
[9] = Synergistic anticancer activity against mouse RCaP cells assessed as cell growth inhibition at 20 uM measured after 72 hrs in presence of 0.001 uM of topotecan by MTT assay relative to control; format: functional; details: read-out: GI
PC-3 [10] = test: Synergistic anticancer activity against human PC-3 cells assessed as cell growth inhibition at 5 uM measured after 72 hrs in presence of 0.0001 uM of topotecan by MTT assay relative to control; format: functional; details: read-out: GI
[11] = Synergistic anticancer activity against mouse RCaP cells assessed as cell growth inhibition at 10 uM measured after 72 hrs in presence of 1 uM of topotecan by MTT assay relative to control; format: functional; details: read-out: GI
[12] = Synergistic anticancer activity against mouse RCaP cells assessed as cell growth inhibition at 10 uM measured after 72 hrs in presence of 10 uM of topotecan by MTT assay relative to control; format: functional; details: read-out: GI
[13] = Cytotoxicity against mouse RCaP cells assessed as cell growth inhibition at 10 uM measured after 72 hrs by MTT assay relative to control; format: functional; details: read-out: GI
PC-3 [14] = test: Synergistic anticancer activity against human PC-3 cells assessed as cell growth inhibition at 20 uM measured after 72 hrs in presence of 0.1 uM of topotecan by MTT assay relative to control; format: functional; details: read-out: GI
[15] = Synergistic anticancer activity against mouse RCaP cells assessed as cell growth inhibition at 20 uM measured after 72 hrs in presence of 0.0001 uM of topotecan by MTT assay relative to control; format: functional; details: read-out: GI
[16] = Cytotoxicity against mouse RCaP cells assessed as cell growth inhibition at […] measured after 72 hrs by MTT assay relative to control; format: functional; details: dose 2.5 µM, read-out: GI
PC-3 [17] = test: Synergistic anticancer activity against human PC-3 cells assessed as cell growth inhibition at 10 uM measured after 72 hrs in presence of 0.0001 uM of topotecan by MTT assay relative to control; format: functional; details: read-out: GI
PC-3 [18] = test: Synergistic anticancer activity against human PC-3 cells assessed as cell growth inhibition at 5 uM measured after 72 hrs in presence of 1 uM of topotecan by MTT assay relative to control; format: functional; details: read-out: GI
[19] = Synergistic anticancer activity against mouse RCaP cells assessed as cell growth inhibition at 5 uM measured after 72 hrs in presence of 0.1 uM of topotecan by MTT assay relative to control; format: functional; details: read-out: GI
[20] = Synergistic anticancer activity against mouse RCaP cells assessed as cell growth inhibition at 10 uM measured after 72 hrs in presence of 0.01 uM of topotecan by MTT assay relative to control; format: functional; details: read-out: GI
[21] = Cytotoxicity against mouse RCaP cells assessed as cell growth inhibition at 5 uM measured after 72 hrs by MTT assay relative to control; format: functional; details: read-out: GI
PC-3 [22] = test: Synergistic anticancer activity against human PC-3 cells assessed as cell growth inhibition at 10 uM measured after 72 hrs in presence of 0.01 uM of topotecan by MTT assay relative to control; format: functional; details: read-out: GI
[23] = Cytotoxicity against mouse RCaP cells assessed as cell growth inhibition at 20 uM measured after 72 hrs by MTT assay relative to control; format: functional; details: read-out: GI
PC-3 [24] = test: Synergistic anticancer activity against human PC-3 cells assessed as cell growth inhibition at 20 uM measured after 72 hrs in presence of 10 uM of topotecan by MTT assay relative to control; format: functional; details: read-out: GI
[25] = Synergistic anticancer activity against mouse RCaP cells assessed as cell growth inhibition at 5 uM measured after 72 hrs in presence of 0.0001 uM of topotecan by MTT assay relative to control; format: functional; details: read-out: GI
PC-3 [26] = test: Synergistic anticancer activity against human PC-3 cells assessed as cell growth inhibition at 20 uM measured after 72 hrs in presence of 0.0001 uM of topotecan by MTT assay relative to control; format: functional; details: read-out: GI
PC-3 [27] = test: Synergistic anticancer activity against human PC-3 cells assessed as cell growth inhibition at 10 uM measured after 72 hrs in presence of 1 uM of topotecan by MTT assay relative to control; format: functional; details: read-out: GI
PC-3 [28] = test: Cytotoxicity against human PC-3 cells assessed as cell growth inhibition at 5 uM measured after 72 hrs by MTT assay relative to control; format: functional; details: read-out: GI
PC-3 [29] = test: Synergistic anticancer activity against human PC-3 cells assessed as cell growth inhibition at 5 uM measured after 72 hrs in presence of 10 uM of topotecan by MTT assay relative to control; format: functional; details: read-out: GI
[30] = Synergistic anticancer activity against mouse RCaP cells assessed as cell growth inhibition at […] measured after 72 hrs in presence of 1 uM of topotecan by MTT assay relative to control; format: functional; details: dose 2.5 µM, read-out: GI
[31] = Synergistic anticancer activity against mouse RCaP cells assessed as cell growth inhibition at 20 uM measured after 72 hrs in presence of 0.00001 uM of topotecan by MTT assay relative to control; format: functional; details: read-out: GI
PC-3 [32] = test: Cytotoxicity against human PC-3 cells assessed as cell growth inhibition at 10 uM measured after 72 hrs by MTT assay relative to control; format: functional; details: read-out: GI
[33] = Synergistic anticancer activity against mouse RCaP cells assessed as cell growth inhibition at 5 uM measured after 72 hrs in presence of 0.01 uM of topotecan by MTT assay relative to control; format: functional; details: read-out: GI
PC-3 [34] = test: Synergistic anticancer activity against human PC-3 cells assessed as cell growth inhibition at 20 uM measured after 72 hrs in presence of 1 uM of topotecan by MTT assay relative to control; format: functional; details: read-out: GI
[35] = Cytotoxicity against human WI-38 cells assessed as reduction in cell viability measured after 72 hrs by MTT assay; format: toxicity, cell-based
[36] = Synergistic anticancer activity against mouse RCaP cells assessed as cell growth inhibition at […] measured after 72 hrs in presence of 0.1 uM of topotecan by MTT assay relative to control; format: functional; details: dose 2.5 µM, read-out: GI

Structure (SMILES)	inhibition of growth at 20 µM [1] [%]	inhibition of growth at […] [2] [%]	inhibition of growth at […] [3] [%]	inhibition of growth at 20 µM [4] [%]	inhibition of growth at 10 µM (PC-3 [5]) [%]	inhibition of growth at 20 µM (PC-3 [6]) [%]	inhibition of growth at 20 µM (PC-3 [7]) [%]	inhibition of growth at 5 µM (PC-3 [8]) [%]	inhibition of growth at 20 µM [9] [%]	inhibition of growth at 5 µM (PC-3 [10]) [%]	inhibition of growth at 10 µM [11] [%]	inhibition of growth at 10 µM [12] [%]	inhibition of growth at 10 µM [13] [%]	inhibition of growth at 20 µM (PC-3 [14]) [%]	inhibition of growth at 20 µM [15] [%]	inhibition of growth at […] [16] [%]	inhibition of growth at 10 µM (PC-3 [17]) [%]	inhibition of growth at 5 µM (PC-3 [18]) [%]	inhibition of growth at 5 µM [19] [%]	inhibition of growth at 10 µM [20] [%]	further results
COc1ccccc1[C@H]1[C@H](C(=O)O)[C@H](c2ccccc2OC)[C@H]1C(=O)OCC1c2ccccc2-c2ccccc21	99.1	0.97	6.8	99.9	56.3	89.1	99.8	34.6	98.5	27.5	98.3	99.2	64.9	99.8	97.5	5.2	59.3	81	93.6	75.2	inhibition of growth at 5 µM [21]: 8.67%; inhibition of growth at 10 µM (PC-3 [22]): 64.8%; inhibition of growth at 20 µM [23]: 98.2%; inhibition of growth at 20 µM (PC-3 [24]): 92.3%; inhibition of growth at 5 µM [25]: 17.6%; inhibition of growth at 20 µM (PC-3 [26]): 99.8%; inhibition of growth at 10 µM (PC-3 [27]): 82.2%; inhibition of growth at 5 µM (PC-3 [28]): 7.5%; inhibition of growth at 5 µM (PC-3 [29]): 86.4%; inhibition of growth at […] [30]: 98.1%; inhibition of growth at 20 µM [31]: 98.1%; inhibition of growth at 10 µM (PC-3 [32]): 30.1%; inhibition of growth at 5 µM [33]: 31.8%; inhibition of growth at 20 µM (PC-3 [34]): 99.8%; IC50 at 72 h [35]: 23 µM; inhibition of growth at […] [36]: 86.6%
O=C(O)[C@H]1[C@H](c2ccccc2)[C@H](C(=O)Oc2cc(-c3ccc4c(c3)OCO4)ccc2-c2ccccc2)[C@H]1c1ccccc1	98.8	5.43	6.33	98.9	78.9	96.1	98.4	35.2	97.8	30.9	96	99.9	58.6	98.5	96.7	5.2	78.5	72.2	87.2	71.7	inhibition of growth at 5 µM [21]: 22.5%; inhibition of growth at 10 µM (PC-3 [22]): 83%; inhibition of growth at 20 µM [23]: 94.7%; inhibition of growth at 20 µM (PC-3 [24]): 98.2%; inhibition of growth at 5 µM [25]: 24.6%; inhibition of growth at 20 µM (PC-3 [26]): 89%; inhibition of growth at 10 µM (PC-3 [27]): 92%; inhibition of growth at 5 µM (PC-3 [28]): 28.4%; inhibition of growth at 5 µM (PC-3 [29]): 80.8%; inhibition of growth at […] [30]: 98.6%; inhibition of growth at 20 µM [31]: 97.6%; inhibition of growth at 10 µM (PC-3 [32]): 57.5%; inhibition of growth at 5 µM [33]: 34.4%; inhibition of growth at 20 µM (PC-3 [34]): 99.3%; IC50 at 72 h [35]: 19.5 µM; inhibition of growth at […] [36]: 82%
COc1ccccc1[C@H]1[C@H](C(=O)O)[C@H](c2ccccc2OC)[C@H]1C(=O)Oc1cc(-c2ccc3c(c2)OCO3)ccc1-c1ccccc1	100	-1.97	1.77	99.6	69.5	99.2	99.4	57.7	100	44.1	94.8	97	78.2	99	100	2.8	67.7	89.8	91.9	87.8	inhibition of growth at 5 µM [21]: 40.6%; inhibition of growth at 10 µM (PC-3 [22]): 77.4%; inhibition of growth at 20 µM [23]: 99.7%; inhibition of growth at 20 µM (PC-3 [24]): 98.8%; inhibition of growth at 5 µM [25]: 26.8%; inhibition of growth at 20 µM (PC-3 [26]): 99.5%; inhibition of growth at 10 µM (PC-3 [27]): 88.7%; inhibition of growth at 5 µM (PC-3 [28]): 30.7%; inhibition of growth at 5 µM (PC-3 [29]): 92.5%; inhibition of growth at […] [30]: 98.2%; inhibition of growth at 20 µM [31]: 100%; inhibition of growth at 10 µM (PC-3 [32]): 66.4%; inhibition of growth at 5 µM [33]: 49.6%; inhibition of growth at 20 µM (PC-3 [34]): 99.1%; IC50 at 72 h [35]: 10.8 µM; inhibition of growth at […] [36]: 89.9%
